The results in this text go back to PubChem BioAssay (NCI).

Some test systems named below: HOP-62 NSCLC; M14 melanoma; TK-10 renal; EKVX NSCLC; KM12 colon; ACHN renal; IGROV1 ovarian; MALME-3M melanoma.
What all share (test): growth of human tumour cells (NCI), 48 h

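Test compounds were applied to cells in 96-well plates for 48 hours at 5 doses. Here, GI50 denotes the concentration required for 50% inhibition of growth. TGI denotes the concentration required for complete inhibition of growth.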 Bounds are passed on as bounds.

Consider `Cc1ccc(C)c2c1C(O)(C#Cc1ccccc1)c1ccccc1C2(O)C#Cc1ccccc1` (stereo not given), for which the GI50 in the test on HOP-62 NSCLC is 5.88 µM; in the test with M14 melanoma, 3.6 µM; in the test on TK-10 renal, 3.68 µM; in the test on EKVX NSCLC it was 3.36 µM; with KM12 colon it was 2.93 µM; in the test on ACHN renal, 2.84 µM. Also, the GI50 with IGROV1 ovarian was 3.05 µM. The TGI in the test with HOP-62 NSCLC was over 100 µM; with M14 melanoma it was over 82.5 µM; in the test with TK-10 renal, over 100 µM; in the test on EKVX NSCLC it was over 29 µM; in the test with KM12 colon, 27.1 µM; with ACHN renal, over 100 µM. For the same compound, in the test with IGROV1 ovarian, the TGI is 51.3 µM.

Consider `Cc1ccc(-c2csc(/N=C3\C(=O)Nc4ccccc43)n2)cc1`, for which the GI50 in the test on M14 melanoma was 1.32 µM; in the test on TK-10 renal, 2.52 µM; in the test with EKVX NSCLC, 1.52 µM; in the test with KM12 colon it was 1.86 µM; in the test on ACHN renal, 2.62 µM; in the test with MALME-3M melanoma, 1.52 µM. The GI50 in the test with IGROV1 ovarian was 1.53 µM. Besides, the TGI in the test on M14 melanoma was 2.79 µM; in the test with TK-10 renal, 5.15 µM; in the test on EKVX NSCLC it was 5.86 µM; in the test with KM12 colon, 4.51 µM; with ACHN renal, 14.2 µM; with MALME-3M melanoma, 3.4 µM. In addition, the TGI with IGROV1 ovarian came out at 4.55 µM.

Turning to `Cc1nn(-c2nc3ccccc3[nH]2)c(N)c1-c1ccc(Cl)cc1`, the GI50 with HOP-62 NSCLC was 7.29 µM; in the test on M14 melanoma, 6.68 µM; in the test on TK-10 renal, 4.51 µM; with KM12 colon it was 4.39 µM; in the test on ACHN renal, 4.6 µM; in the test with MALME-3M melanoma, 4.69 µM. The GI50 with IGROV1 ovarian is 7.75 µM. Also, the TGI in the test on HOP-62 NSCLC, in the test with M14 melanoma, in the test on TK-10 renal, in the test with KM12 colon, in the test with ACHN renal and in the test with MALME-3M melanoma was over 100 µM throughout. The TGI in the test on IGROV1 ovarian is over 100 µM.

Consider `Cc1ccc(S(=O)(=O)NC(=O)C2C(=O)CC3(CCCCC3)CC2=O)cc1`, for which the TGI is over 100 µM in the test on HOP-62 NSCLC; over 100 µM in the test with M14 melanoma; 62.1 µM with TK-10 renal; 61.9 µM with EKVX NSCLC; 50 µM with KM12 colon; 62.1 µM with ACHN renal. This compound also came in with a TGI in the test on IGROV1 ovarian of 71.1 µM.

`COc1ccc2c(c1)C(=O)c1c-2n(CCCN=[N+]=[N-])c(=O)c2cc(OC)c(OC)cc12`: the GI50 with HOP-62 NSCLC is 11.6 µM; in the test with TK-10 renal it was 19.5 µM; with EKVX NSCLC, over 100 µM; in the test on KM12 colon it was over 100 µM; in the test with ACHN renal, 10.2 µM; with MALME-3M melanoma, 66.4 µM. Moreover, in the test on IGROV1 ovarian, the GI50 was 16 µM. Further, the TGI in the test with HOP-62 NSCLC was 63.2 µM; with TK-10 renal, 72.1 µM; with EKVX NSCLC, over 100 µM; in the test with KM12 colon, over 100 µM; in the test on ACHN renal, 25.8 µM; with MALME-3M melanoma, over 100 µM. Also, in the test on IGROV1 ovarian, the TGI is over 100 µM.

Consider `CCCC(=O)NC1=C(Cl)C(=O)c2ccccc2C1=O`, for which the TGI worked out at 25.7 µM with HOP-62 NSCLC; 13 µM in the test with M14 melanoma; 15.6 µM in the test on TK-10 renal; 16.8 µM with EKVX NSCLC; 15.2 µM in the test on KM12 colon; 3.83 µM in the test on ACHN renal. In the test on IGROV1 ovarian, the TGI came to 17.9 µM.

Take `Cn1cc(C2=C(c3cn(CCCCN)c4ccccc34)C(=O)NC2=O)c2ccccc21`: the GI50 with HOP-62 NSCLC, in the test on M14 melanoma, in the test on TK-10 renal, in the test with KM12 colon, with ACHN renal and in the test on MALME-3M melanoma was over 25 µM each time. In addition, in the test with IGROV1 ovarian, the GI50 was over 25 µM. The TGI with HOP-62 NSCLC, in the test with M14 melanoma, with TK-10 renal, in the test on KM12 colon, with ACHN renal and in the test with MALME-3M melanoma was over 25 µM in each case. In addition, the TGI in the test with IGROV1 ovarian is over 25 µM.

On to `Oc1[nH]c2ccccc2c1N=Nc1ccccn1`, for which the TGI was 91.7 µM in the test on HOP-62 NSCLC; over 100 µM in the test with M14 melanoma; 53.7 µM with TK-10 renal; over 100 µM in the test with EKVX NSCLC; 97.8 µM in the test with KM12 colon; 23 µM in the test on ACHN renal. Also, the TGI in the test with IGROV1 ovarian is 90.7 µM.

On to `C=C1C(=O)O[C@H]2C[C@@H]1CC/C(C)=C/CC/C(C)=C/CC[C@H]2C`, for which the GI50 in the test on HOP-62 NSCLC is 12.5 µM; in the test with M14 melanoma, 14.2 µM; in the test with TK-10 renal it was 20 µM; in the test on EKVX NSCLC, 19.7 µM; in the test with KM12 colon it was 18.1 µM; in the test with ACHN renal, 10.6 µM. In addition, in the test with IGROV1 ovarian, the GI50 was 18.8 µM. The TGI in the test with HOP-62 NSCLC amounted to 27.1 µM; in the test with M14 melanoma, 29.3 µM; with TK-10 renal, 37.7 µM; in the test with EKVX NSCLC, 42.8 µM; in the test with KM12 colon, 44.4 µM; in the test with ACHN renal, 24.6 µM. The same compound had a TGI in the test on IGROV1 ovarian of 40 µM.

As to `CCN(Cc1cccc(F)c1)c1ccc(CO)c(Cl)c1`, the GI50 in the test with HOP-62 NSCLC is 1.02 µM; in the test on M14 melanoma it was 19.2 µM; in the test with EKVX NSCLC, 22.3 µM; in the test on KM12 colon, 22.1 µM; with ACHN renal, 29.4 µM; in the test on MALME-3M melanoma it was 20 µM. In addition, in the test with IGROV1 ovarian, the GI50 is 0.0779 µM. In addition, the TGI in the test on HOP-62 NSCLC was over 37.6 µM; with M14 melanoma, 66.8 µM; in the test with EKVX NSCLC it was over 76 µM; in the test with KM12 colon it was over 68.7 µM; with ACHN renal it was over 100 µM; in the test with MALME-3M melanoma, 50.1 µM. Also, the TGI in the test on IGROV1 ovarian came out at 1.15 µM.

Regarding `CCOc1ccc2nc(SCc3nc4n(n3)S(=O)(=O)c3ccccc3N4C)sc2c1`, the GI50 is 50.8 µM in the test on HOP-62 NSCLC; over 100 µM in the test on M14 melanoma; over 100 µM in the test on EKVX NSCLC; over 100 µM in the test with ACHN renal; over 100 µM in the test on IGROV1 ovarian. Further, the TGI in the test on HOP-62 NSCLC, with M14 melanoma, with EKVX NSCLC, with ACHN renal and in the test with IGROV1 ovarian was over 100 µM in each case.

For the compound `O=C(CP(=O)(O)O)NC(CC(=O)OCc1ccccc1)C(=O)OCc1ccccc1` (stereo not given), the TGI with HOP-62 NSCLC, in the test with M14 melanoma, with EKVX NSCLC, in the test on ACHN renal, in the test with MALME-3M melanoma and with IGROV1 ovarian was over 100 µM throughout.
